Target: BoNT/A (Clostridium botulinum, UniProt P0DPI0)
Conditions: cited from earlier work

Chain of BoNT/A (P0DPI0 whole entry, looked up): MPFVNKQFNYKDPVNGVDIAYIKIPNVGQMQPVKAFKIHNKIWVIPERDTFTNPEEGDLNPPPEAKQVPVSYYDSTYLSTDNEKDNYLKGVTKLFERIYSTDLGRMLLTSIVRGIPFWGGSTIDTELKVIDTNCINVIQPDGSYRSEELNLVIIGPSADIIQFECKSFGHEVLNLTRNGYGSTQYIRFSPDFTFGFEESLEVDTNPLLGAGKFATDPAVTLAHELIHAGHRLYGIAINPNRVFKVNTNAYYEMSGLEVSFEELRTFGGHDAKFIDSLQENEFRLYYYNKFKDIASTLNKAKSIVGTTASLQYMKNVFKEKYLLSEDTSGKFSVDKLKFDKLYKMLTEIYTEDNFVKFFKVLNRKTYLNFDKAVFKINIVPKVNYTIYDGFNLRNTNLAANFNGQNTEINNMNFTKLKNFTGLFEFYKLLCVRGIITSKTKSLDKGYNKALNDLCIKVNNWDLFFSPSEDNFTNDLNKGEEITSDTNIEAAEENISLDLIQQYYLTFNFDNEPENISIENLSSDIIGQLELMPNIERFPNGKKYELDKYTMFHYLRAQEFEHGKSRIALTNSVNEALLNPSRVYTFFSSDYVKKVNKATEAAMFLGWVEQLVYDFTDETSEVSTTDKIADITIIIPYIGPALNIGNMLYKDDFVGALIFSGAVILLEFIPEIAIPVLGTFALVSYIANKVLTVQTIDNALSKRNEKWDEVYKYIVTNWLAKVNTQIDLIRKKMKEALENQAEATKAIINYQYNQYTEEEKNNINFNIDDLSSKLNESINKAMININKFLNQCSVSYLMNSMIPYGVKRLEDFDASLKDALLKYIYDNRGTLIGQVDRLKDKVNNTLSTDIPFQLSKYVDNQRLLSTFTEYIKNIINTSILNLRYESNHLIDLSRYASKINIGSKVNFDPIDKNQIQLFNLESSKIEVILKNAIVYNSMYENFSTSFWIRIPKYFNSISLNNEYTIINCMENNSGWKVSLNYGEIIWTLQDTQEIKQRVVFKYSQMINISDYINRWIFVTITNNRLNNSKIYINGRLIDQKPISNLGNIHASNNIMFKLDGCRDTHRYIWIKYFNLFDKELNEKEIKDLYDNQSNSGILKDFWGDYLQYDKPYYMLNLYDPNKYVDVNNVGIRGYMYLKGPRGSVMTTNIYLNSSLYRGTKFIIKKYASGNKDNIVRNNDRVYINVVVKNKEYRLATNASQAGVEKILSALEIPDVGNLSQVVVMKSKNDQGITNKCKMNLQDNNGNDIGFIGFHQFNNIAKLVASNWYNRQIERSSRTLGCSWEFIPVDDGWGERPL

Question: With SNKTRIDEANBRATKML [Peptide Q11B] as the molecule, how does the “Relative Rate” value read?
Answer: The value was 0.25.

Question: Which “Relative Rate” value does the source give for SNKTRIDEANQRABKML [Peptide T14B] here?
Answer: The value was 1.20.

Question: With SNKTRIDEANQRATKML [[1-17]] as the molecule, how does the “Relative Rate” value read?
Answer: The value was 1.00.

Question: Which “Relative Rate” value does the source give for SNKTRIDEANQRATKXL [Peptide M16X] here?
Answer: Its value is 1.20.

Question: With SNKTRIDEANQRBTKML [Peptide A13B] as the molecule, how does the “Relative Rate” value read?
Answer: The value was 0.79.

Question: Which “Relative Rate” value does the source give for SNKTRIDEBNQRATKML [Peptide A9B] here?
Answer: Its value is 0.38.

Tested on: Neuro-2A cells
Format: cell-based, mouse
Conditions: not given

Question: For `CC1=C(/C=C/C(C)=C/C=C/C(C)=C/C(=O)O)C(C)(C)CCC1` [all trans retinoic acid, All Trans-Retinoic acid], which “BoNT/A SNAP25197-cleavage product (uptake of BoNT/A) after differentiation reagent treatment” value is on record?
Answer: The value was “increase”.
